Reference: ChEMBL document CHEMBL1145739, “N-(3-phenylsulfonyl-3-piperidinoyl)-phenylalanine derivatives as potent, selective VLA-4 antagonists” (Bioorg Med Chem Lett, 2003)

Legend:
Integrin alpha-4/beta-1 = Integrin alpha-4/beta-1 (Homo sapiens, UniProt P05556+P13612); assay: Binding affinity towards VLA-4 (alpha4 beta-1) receptor in human Jurkat cells using [125I]VCAM-Ig as radioligand; assay type: cell-based
Integrin alpha-4/beta-7 = target: T1, Integrin alpha-4/beta-7 (Homo sapiens, UniProt P13612+P26010); assay: Binding affinity towards […] receptor in human RPMI-8866 B-cell line using [125I]MAdCAM-Ig as radioligand
T1 sequence (P13612 whole entry): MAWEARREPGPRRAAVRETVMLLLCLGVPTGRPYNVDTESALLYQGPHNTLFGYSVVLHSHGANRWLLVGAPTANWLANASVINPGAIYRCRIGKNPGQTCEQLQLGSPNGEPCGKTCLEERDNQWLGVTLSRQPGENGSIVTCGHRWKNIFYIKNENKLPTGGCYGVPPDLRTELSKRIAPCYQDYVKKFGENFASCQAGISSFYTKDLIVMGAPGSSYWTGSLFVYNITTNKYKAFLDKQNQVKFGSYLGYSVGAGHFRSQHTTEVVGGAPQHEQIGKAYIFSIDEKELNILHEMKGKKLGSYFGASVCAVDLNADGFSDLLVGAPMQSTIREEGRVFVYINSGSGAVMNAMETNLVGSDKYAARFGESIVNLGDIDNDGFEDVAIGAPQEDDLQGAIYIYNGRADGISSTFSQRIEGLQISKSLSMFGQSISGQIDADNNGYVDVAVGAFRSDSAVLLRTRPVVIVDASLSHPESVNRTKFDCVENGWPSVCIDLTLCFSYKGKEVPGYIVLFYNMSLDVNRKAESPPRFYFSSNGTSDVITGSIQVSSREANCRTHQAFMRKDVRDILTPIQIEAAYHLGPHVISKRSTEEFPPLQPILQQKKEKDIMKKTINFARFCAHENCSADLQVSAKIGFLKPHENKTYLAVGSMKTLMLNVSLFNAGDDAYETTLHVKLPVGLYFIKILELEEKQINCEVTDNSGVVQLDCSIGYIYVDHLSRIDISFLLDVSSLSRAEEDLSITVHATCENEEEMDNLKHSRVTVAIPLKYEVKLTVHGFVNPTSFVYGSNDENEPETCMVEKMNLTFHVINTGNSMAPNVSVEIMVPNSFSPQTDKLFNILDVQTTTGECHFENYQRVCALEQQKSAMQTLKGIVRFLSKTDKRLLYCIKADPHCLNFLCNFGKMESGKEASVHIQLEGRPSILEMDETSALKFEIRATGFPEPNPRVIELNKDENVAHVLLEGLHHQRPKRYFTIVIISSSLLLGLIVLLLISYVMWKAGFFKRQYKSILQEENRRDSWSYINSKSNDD
T1 sequence (P26010 whole entry): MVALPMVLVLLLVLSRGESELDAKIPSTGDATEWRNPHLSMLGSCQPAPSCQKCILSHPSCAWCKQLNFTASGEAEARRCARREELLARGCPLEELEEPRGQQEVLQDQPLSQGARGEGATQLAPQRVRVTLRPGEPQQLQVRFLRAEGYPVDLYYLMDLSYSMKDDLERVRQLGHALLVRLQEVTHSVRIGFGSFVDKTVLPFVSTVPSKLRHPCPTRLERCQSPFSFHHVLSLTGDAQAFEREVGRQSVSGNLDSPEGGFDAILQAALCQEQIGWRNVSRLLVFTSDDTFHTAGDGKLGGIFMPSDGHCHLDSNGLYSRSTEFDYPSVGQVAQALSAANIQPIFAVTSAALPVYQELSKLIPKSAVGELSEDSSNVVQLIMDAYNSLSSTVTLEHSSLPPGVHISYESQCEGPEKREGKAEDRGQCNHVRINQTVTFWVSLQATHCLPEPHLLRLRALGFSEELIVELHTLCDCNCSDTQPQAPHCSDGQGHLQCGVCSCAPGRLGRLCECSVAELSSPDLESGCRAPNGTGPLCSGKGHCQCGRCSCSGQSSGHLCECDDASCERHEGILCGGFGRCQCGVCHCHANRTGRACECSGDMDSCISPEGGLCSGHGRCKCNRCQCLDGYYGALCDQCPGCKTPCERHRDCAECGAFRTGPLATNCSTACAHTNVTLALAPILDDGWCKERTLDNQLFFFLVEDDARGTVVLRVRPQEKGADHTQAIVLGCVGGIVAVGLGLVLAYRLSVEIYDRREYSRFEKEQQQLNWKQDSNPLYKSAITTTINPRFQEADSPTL

[1] = target: Integrin alpha-4/beta-7 (Homo sapiens) (UniProt P13612+P26010); assay: Percent inhibition of [125I]VCAM-Ig binding to human integrin alpha4-beta7 receptor of RPMI-8866 cells at 100 nM; assay type: cell-based

Integrin alpha-4/beta-1, sequence (P05556 whole entry, one chain of several): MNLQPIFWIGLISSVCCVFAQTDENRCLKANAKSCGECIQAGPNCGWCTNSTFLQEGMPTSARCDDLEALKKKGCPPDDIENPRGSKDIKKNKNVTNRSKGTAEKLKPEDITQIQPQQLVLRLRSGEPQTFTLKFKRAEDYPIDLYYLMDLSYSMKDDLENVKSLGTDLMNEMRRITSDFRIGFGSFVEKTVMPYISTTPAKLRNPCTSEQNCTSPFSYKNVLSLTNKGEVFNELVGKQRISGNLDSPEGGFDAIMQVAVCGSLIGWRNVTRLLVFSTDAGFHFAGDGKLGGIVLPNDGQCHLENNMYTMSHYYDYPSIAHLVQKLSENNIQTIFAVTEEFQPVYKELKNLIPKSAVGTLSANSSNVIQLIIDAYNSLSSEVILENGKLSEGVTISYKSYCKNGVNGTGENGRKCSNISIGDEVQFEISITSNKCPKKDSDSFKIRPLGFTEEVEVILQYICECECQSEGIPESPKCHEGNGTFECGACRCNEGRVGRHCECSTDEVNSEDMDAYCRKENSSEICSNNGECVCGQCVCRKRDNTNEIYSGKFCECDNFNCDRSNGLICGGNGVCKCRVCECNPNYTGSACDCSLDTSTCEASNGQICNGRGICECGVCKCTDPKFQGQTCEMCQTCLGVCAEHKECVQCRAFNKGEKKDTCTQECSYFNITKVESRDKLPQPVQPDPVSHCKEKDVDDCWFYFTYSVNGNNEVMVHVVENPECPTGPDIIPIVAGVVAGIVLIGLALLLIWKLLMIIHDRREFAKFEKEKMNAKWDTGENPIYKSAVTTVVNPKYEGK

SMILES: COc1ccccc1-c1ccc(C[C@H](NC(=O)C2(S(=O)(=O)c3ccccc3)CCCNC2)C(=O)O)cc1 (stereo partly specified)
- IC50 (Integrin alpha-4/beta-1): 0.48 nM
- IC50 (Integrin alpha-4/beta-7): 622 nM

SMILES: CCCCN1CCC(C(=O)N[C@@H](Cc2ccc(-c3ccccc3OC)cc2)C(=O)O)(S(=O)(=O)c2ccccc2)CC1
- IC50 (Integrin alpha-4/beta-1): 51 nM
- IC50 (Integrin alpha-4/beta-7): 9180 nM

SMILES: COc1ccccc1-c1ccc(C[C@H](NC(=O)C2(S(=O)(=O)c3ccccc3)CC[S+]([O-])CC2)C(=O)O)cc1 (stereo partly specified)
- IC50 (Integrin alpha-4/beta-1): 4.4 nM
- IC50 (Integrin alpha-4/beta-7): 318 nM

SMILES: COc1cccc(OC)c1-c1ccc(C[C@H](NC(=O)C2(S(=O)(=O)CCN3CCOCC3)CCCNC2)C(=O)O)cc1 (stereo partly specified)
- IC50 (Integrin alpha-4/beta-1): 0.67 nM
- IC50 (Integrin alpha-4/beta-7): 257 nM

SMILES: COc1cccc(OC)c1-c1ccc(C[C@H](NC(=O)C2(S(=O)(=O)Cc3ccccc3)CCCNC2)C(=O)O)cc1 (stereo partly specified)
- IC50 (Integrin alpha-4/beta-1): 0.77 nM
- IC50 (Integrin alpha-4/beta-7): 436 nM

SMILES: COc1ccccc1-c1ccc(C[C@H](NC(=O)C2(S(=O)(=O)c3ccccc3)CCS(=O)(=O)CC2)C(=O)O)cc1
- IC50 (Integrin alpha-4/beta-1): 1.3 nM
- IC50 (Integrin alpha-4/beta-7): 70 nM

SMILES: O=C(O)[C@H](Cc1ccc(-c2ccccc2)cc1)NC(=O)C1(S(=O)(=O)c2cccc3ccccc23)CCCC1
- IC50 (Integrin alpha-4/beta-1): 735 nM
- inhibition [1]: 7%

SMILES: COc1cccc(OC)c1-c1ccc(C[C@H](NC(=O)C2(S(=O)(=O)c3cn(C)cn3)CCCNC2)C(=O)O)cc1 (stereo partly specified)
- IC50 (Integrin alpha-4/beta-1): 0.46 nM
- IC50 (Integrin alpha-4/beta-7): 97 nM

SMILES: O=C(O)[C@H](Cc1ccc(-c2ccccc2)cc1)NC(=O)C1(S(=O)(=O)C2CCCCC2)CCCC1
- IC50 (Integrin alpha-4/beta-1): 7 nM
- inhibition [1]: 16%

SMILES: O=C(O)[C@H](Cc1ccc(-c2ccccc2)cc1)NC(=O)C1(S(=O)(=O)c2ccccc2Br)CCCCC1
- IC50 (Integrin alpha-4/beta-1): 45 nM
- inhibition [1]: 13%

SMILES: COc1ccccc1-c1ccc(C[C@H](NC(=O)C2(S(=O)(=O)c3ccccc3)CCN(c3ccccc3)CC2)C(=O)O)cc1
- IC50 (Integrin alpha-4/beta-1): 23 nM
- IC50 (Integrin alpha-4/beta-7): 1260 nM

SMILES: CCN1CCC(C(=O)N[C@@H](Cc2ccc(-c3ccccc3OC)cc2)C(=O)O)(S(=O)(=O)c2ccccc2)CC1
- IC50 (Integrin alpha-4/beta-1): 31 nM
- IC50 (Integrin alpha-4/beta-7): 1230 nM

SMILES: COc1cccc(OC)c1-c1ccc(C[C@H](NC(=O)C2(S(=O)(=O)c3ccc(F)cc3)CCCC2)C(=O)O)cc1
- IC50 (Integrin alpha-4/beta-1): 0.07 nM
- IC50 (Integrin alpha-4/beta-7): 5 nM

SMILES: COc1ccccc1-c1ccc(C[C@H](NC(=O)C2(S(=O)(=O)c3ccccc3)CCN(C(C)(C)C)CC2)C(=O)O)cc1
- IC50 (Integrin alpha-4/beta-1): 56 nM
- IC50 (Integrin alpha-4/beta-7): 9220 nM

SMILES: CCS(=O)(=O)C1(C(=O)N[C@@H](Cc2ccc(-c3ccccc3OC)cc2)C(=O)O)CCCC1
- IC50 (Integrin alpha-4/beta-1): 0.53 nM
- IC50 (Integrin alpha-4/beta-7): 58 nM

SMILES: COc1ccccc1-c1ccc(C[C@H](NC(=O)C2(S(=O)(=O)c3ccccc3)CCCN(C)C2)C(=O)O)cc1 (stereo partly specified)
- IC50 (Integrin alpha-4/beta-1): 6.6 nM
- IC50 (Integrin alpha-4/beta-7): 5790 nM

SMILES: COc1cccc(OC)c1-c1ccc(C[C@H](NC(=O)C2(S(=O)(=O)c3ccc(N4CCCC4)cc3)CCCNC2)C(=O)O)cc1 (stereo partly specified)
- IC50 (Integrin alpha-4/beta-1): 0.36 nM
- IC50 (Integrin alpha-4/beta-7): 536 nM

SMILES: COc1ccccc1-c1ccc(C[C@H](NC(=O)C2(S(=O)(=O)c3ccccc3)CCSCC2)C(=O)O)cc1
- IC50 (Integrin alpha-4/beta-1): 4.1 nM
- IC50 (Integrin alpha-4/beta-7): 128 nM

SMILES: COc1cccc(OC)c1-c1ccc(C[C@H](NC(=O)C2(S(=O)(=O)c3ccc(Br)cc3)CCCNC2)C(=O)O)cc1 (stereo partly specified)
- IC50 (Integrin alpha-4/beta-1): 0.19 nM
- IC50 (Integrin alpha-4/beta-7): 94 nM

SMILES: COc1cccc(OC)c1-c1ccc(C[C@H](NC(=O)C2(S(C)(=O)=O)CCCNC2)C(=O)O)cc1 (stereo partly specified)
- IC50 (Integrin alpha-4/beta-1): 0.19 nM
- IC50 (Integrin alpha-4/beta-7): 21 nM

SMILES: COc1ccccc1-c1ccc(C[C@H](NC(=O)C2(S(=O)(=O)c3ccccc3)CCOCC2)C(=O)O)cc1
- IC50 (Integrin alpha-4/beta-1): 0.55 nM
- IC50 (Integrin alpha-4/beta-7): 150 nM

SMILES: COc1cccc(OC)c1-c1ccc(C[C@H](NC(=O)C2(S(=O)(=O)c3cccc(Br)c3)CCCNC2)C(=O)O)cc1 (stereo partly specified)
- IC50 (Integrin alpha-4/beta-1): 0.13 nM
- IC50 (Integrin alpha-4/beta-7): 83 nM

SMILES: COc1ccccc1-c1ccc(C[C@H](NC(=O)C2(S(=O)(=O)Nc3ccccc3)CCCC2)C(=O)O)cc1
- IC50 (Integrin alpha-4/beta-1): 15 nM
- IC50 (Integrin alpha-4/beta-7): 521 nM
